Experiments:
[1] = test system: Drosophila model of Parkinson's Disease; settings: fly feeding, 75 mM in medium; cited from earlier work
[2] = test system: mThyl-human alpha-synuclein transgenic mouse model; settings: 1 g/kg/day interperitoneally; cited from earlier work
[3] = test system: Parkinson's disease patients; settings: 18 g per day oral, cited from earlier work
alfa-synuclein = alfa-synuclein (Homo sapiens, UniProt P37840); settings: in vitro; cited from earlier work
old mice = settings: chronic low dose, 3 mg per kg bodyweight per day; cited from earlier work
C57BL6 mice = test: Y-maze Test of MK-801 induced cognitive decline; format: in vivo; settings: N=12 per group, random = 33%
Method: The effect of pomegranate-CBD based formulation with a 12:1 pomegranate to CBD ratio on cognitive decline was further evaluated in C57BL6 mice. The cognitive decline of the mice was achieved using MK-801 and the cognitive ability of the mice were tested using the Y-maze Test. The experiment included three groups of mice, neutral control (N=12), MK-801 (N=12), MK-801 Pomegranate-CBD treated (N=12).

In the case of OC[C@@H](O)[C@@H](O)[C@H](O)[C@H](O)CO [Mannitol], the “alpha-synuclein aggregates in the brains” value [1] is given as “reduced the amount of alpha-synuclein aggregates”, the behavioral defects [1] is given as “dramatically corrected behavioral defects” and the “alpha-synuclein accumulation in brain regions” value [2] is given as “a decrease in alpha-synuclein accumulation was detected in several brain regions”. For the same compound, the “patients who tolerate the maximal dose” value ([3]; 36 weeks) was “only two thirds of patients tolerate this maximal dose”, the “safety of long-term use” value [3] was “safe” and the “aggregation process of alfa-synuclein” value (alfa-synuclein) was “interfere with the aggregation process of alfa-synuclein”.

In the case of CCCCCc1cc(O)c2c(c1)OC(C)(C)[C@@H]1CCC(C)=C[C@@H]21 [THC, Δ9-tetrahydrocannabinol], the cognitive function (old mice) is listed as “restores cognitive function in old mice”.

In the case of C[C@]12N[C@H](Cc3ccccc31)c1ccccc12 [MK-801], the “% of entries in the novel arm of the Y-maze” value (C57BL6 mice) is reported as 31.8%.

From US20250032411A1, “A SELF-EMULSIFYING DRUG DELIVERY SYSTEM (SEDDS) OF PUNICIC ACID COMBINED WITH NEUROPROTECTIVE NATURAL PRODUCTS TO DELAY ONSET, PREVENT, OR REVERSE NEURODEGENERATIVE DISEASE” (TAHIRO INC., priority 2021, published 2025)
